Results reported in PubChem BioAssay AID1963850 (Molecular Pharmacology Branch, DTP, NCI, 2024).

Test system: 192522-019-R-J2-PDC complex tumor spheroid viability
Assay: Anticancer human tumor 192522-019-R-J2-PDC patient-derived colon adenocarcinoma cell line growth inhibition [POLQ]
Conditions: for IC50: curve of first compound; for viability, T/C: stronger effect = lower value
In short: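 PDC + HUVEC + MSC complex spheroids; POLQ inhibitors ± partner drugs; top conc. at/near clinical Cmax, else 10 microM (SN-38 1 microM), half-log dilutions; 37 degrees C, 5% CO2.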

[1] = second compound 0.0316 µM, first compound 0.0316 µM
[2] = second compound 0.0316 µM, first compound 0.1 µM
[3] = second compound 0.0316 µM, first compound 0.316 µM
[4] = second compound 0.0316 µM, first compound 1 µM
[5] = second compound 0.0316 µM, first compound 3.16 µM
[6] = second compound 0.0316 µM, first compound 10 µM
[7] = second compound 0.1 µM, first compound 0.0316 µM
[8] = second compound 0.1 µM, first compound 0.1 µM
[9] = second compound 0.1 µM, first compound 0.316 µM
[10] = second compound 0.1 µM, first compound 1 µM
[11] = second compound 0.1 µM, first compound 3.16 µM
[12] = second compound 0.1 µM, first compound 10 µM
[13] = second compound 0.316 µM, first compound 0.0316 µM
[14] = second compound 0.316 µM, first compound 0.1 µM
[15] = second compound 0.316 µM, first compound 0.316 µM
[16] = second compound 0.316 µM, first compound 1 µM
[17] = second compound 0.316 µM, first compound 3.16 µM
[18] = second compound 0.316 µM, first compound 10 µM
[19] = second compound 1 µM, first compound 0.0316 µM
[20] = second compound 1 µM, first compound 0.1 µM
[21] = second compound 1 µM, first compound 0.316 µM
[22] = second compound 1 µM, first compound 1 µM
[23] = second compound 1 µM, first compound 3.16 µM
[24] = second compound 1 µM, first compound 10 µM
[25] = second compound 3.16 µM, first compound 0.0316 µM
[26] = second compound 3.16 µM, first compound 0.1 µM
[27] = second compound 3.16 µM, first compound 0.316 µM
[28] = second compound 3.16 µM, first compound 1 µM
[29] = second compound 3.16 µM, first compound 3.16 µM
[30] = second compound 3.16 µM, first compound 10 µM
[31] = second compound 10 µM, first compound 0.0316 µM
[32] = second compound 10 µM, first compound 0.1 µM
[33] = second compound 10 µM, first compound 0.316 µM
[34] = second compound 10 µM, first compound 1 µM
[35] = second compound 10 µM, first compound 3.16 µM
[36] = second compound 10 µM, first compound 10 µM
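Further: spheroids exposed to drugs for seven days before reading.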
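Wherever viability, T/C is given: 100% = DMSO vehicle control viability in luminescence.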

COc1cc(C2c3cc4c(cc3C(OC3OC5COC(C)OC5C(O)C3O)C3COC(=O)C23)OCO4)cc(OC)c1O (centres undefined) + Cc1cccc(N(C)C(=O)C2C(O)CCN2c2nc(C)cc(C(F)(F)F)c2C#N)c1
IC50 (second compound 0.0316 µM): > 10 µM
IC50 (second compound 0.1 µM): > 10 µM
IC50 (second compound 0.316 µM): > 10 µM
IC50 (second compound 1 µM): > 10 µM
IC50 (second compound 3.16 µM): > 10 µM
IC50 (second compound 10 µM): > 10 µM
viability, T/C [1]: 96.8%
viability, T/C [2]: 91.4%
viability, T/C [3]: 103%
viability, T/C [4]: 86.1%
viability, T/C [5]: 64.7%
viability, T/C [6]: 68.5%
viability, T/C [7]: 103%
viability, T/C [8]: 98.8%
viability, T/C [9]: 97.1%
viability, T/C [10]: 90.1%
viability, T/C [11]: 58.6%
viability, T/C [12]: 72.1%
viability, T/C [13]: 107%
viability, T/C [14]: 108%
viability, T/C [15]: 96.4%
viability, T/C [16]: 93.3%
viability, T/C [17]: 65.8%
viability, T/C [18]: 68.3%
viability, T/C [19]: 108%
viability, T/C [20]: 97.6%
viability, T/C [21]: 98.9%
viability, T/C [22]: 95.7%
viability, T/C [23]: 70.5%
viability, T/C [24]: 69.3%
viability, T/C [25]: 113%
viability, T/C [26]: 105%
viability, T/C [27]: 102%
viability, T/C [28]: 88.5%
viability, T/C [29]: 79.9%
viability, T/C [30]: 63.1%
viability, T/C [31]: 117%
viability, T/C [32]: 104%
viability, T/C [33]: 105%
viability, T/C [34]: 91.6%
viability, T/C [35]: 80%
viability, T/C [36]: 65.2%

O=C(c1cc(Cc2n[nH]c(=O)c3ccccc23)ccc1F)N1CCN(C(=O)C2CC2)CC1 + Cc1cccc(N(C)C(=O)C2C(O)CCN2c2nc(C)cc(C(F)(F)F)c2C#N)c1
IC50 (second compound 0.0316 µM): > 10 µM
IC50 (second compound 0.1 µM): > 10 µM
IC50 (second compound 0.316 µM): > 10 µM
IC50 (second compound 1 µM): > 10 µM
IC50 (second compound 3.16 µM): > 10 µM
IC50 (second compound 10 µM): > 10 µM
viability, T/C [1]: 101%
viability, T/C [2]: 82.3%
viability, T/C [3]: 98%
viability, T/C [4]: 88.1%
viability, T/C [5]: 98.5%
viability, T/C [6]: 92.6%
viability, T/C [7]: 107%
viability, T/C [8]: 92.8%
viability, T/C [9]: 107%
viability, T/C [10]: 95.9%
viability, T/C [11]: 100%
viability, T/C [12]: 101%
viability, T/C [13]: 97.8%
viability, T/C [14]: 94.9%
viability, T/C [15]: 101%
viability, T/C [16]: 96.1%
viability, T/C [17]: 106%
viability, T/C [18]: 93.2%
viability, T/C [19]: 96.1%
viability, T/C [20]: 106%
viability, T/C [21]: 104%
viability, T/C [22]: 96.9%
viability, T/C [23]: 111%
viability, T/C [24]: 106%
viability, T/C [25]: 102%
viability, T/C [26]: 111%
viability, T/C [27]: 107%
viability, T/C [28]: 91.3%
viability, T/C [29]: 103%
viability, T/C [30]: 111%
viability, T/C [31]: 99.9%
viability, T/C [32]: 98.5%
viability, T/C [33]: 103%
viability, T/C [34]: 93.7%
viability, T/C [35]: 116%
viability, T/C [36]: 109%
